The values that follow come from publication PMC5908784, “Extracellular loops 2 and 3 of the calcitonin receptor selectively modify agonist binding and efficacy” (Biochemical Pharmacology, 2018).

One may read the Emax as the size of the effect at its maximum, as opposed to the concentration needed. The term EC50 denotes the midpoint of the concentration-response curve. Low values mean higher potency in that assay, high ones lower potency in that assay.

What all share (assay): ERK1/2 phosphorylation
Type in all cases: cell-based

In one assay the target is T1, hCTR P363A (Homo sapiens, UniProt P30988, P363A).
T1 construct: expressed in transfected cells
T1 sequence (P30988 25-474 P363A): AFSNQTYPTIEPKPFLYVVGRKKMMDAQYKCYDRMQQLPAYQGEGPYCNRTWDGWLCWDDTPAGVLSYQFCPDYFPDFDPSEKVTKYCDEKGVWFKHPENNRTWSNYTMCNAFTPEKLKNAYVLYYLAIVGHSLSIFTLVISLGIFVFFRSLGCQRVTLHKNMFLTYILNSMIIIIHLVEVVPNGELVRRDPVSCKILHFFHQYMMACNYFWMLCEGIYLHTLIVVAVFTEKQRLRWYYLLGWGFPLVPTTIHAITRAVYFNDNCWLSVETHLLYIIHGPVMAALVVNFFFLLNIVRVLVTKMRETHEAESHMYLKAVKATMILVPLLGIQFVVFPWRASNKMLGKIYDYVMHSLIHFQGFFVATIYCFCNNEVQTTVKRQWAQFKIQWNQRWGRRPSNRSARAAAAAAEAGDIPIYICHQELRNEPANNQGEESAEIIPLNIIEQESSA
The conditions noted are these: CV1-FlpIn cells, mean ± S.E.M.; for Emax: pERK maximal response. Put shortly: (§1)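 First, cells (2.5 × 10^4 per well) were plated and left overnight. Agonist concentration-response data were then scaled to the peak signal given by 10% FBS at 6 min. Finally, a 3-parameter logistic equation yielded EC50 and Emax.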

Another assay deals with T2, hCTR L298A (Homo sapiens, UniProt P30988, L298A).
T2 construct: c-Myc (N); expressed in transfected cells
T2 sequence (P30988 25-474 L298A): T1 sequence (P30988 25-474 P363A) with L274A, A339P
The conditions noted are these: CV1-FlpIn cells, mean ± S.E.M.; for Emax: pERK maximal response; for EC50: pERK, three-parameter logistic fit. The method, boiled down:
as §1

A further assay has as its target T3, hCTR D287A (Homo sapiens, UniProt P30988, D287A).
T3 construct: c-Myc (N); expressed in transfected cells
T3 sequence (P30988 25-474 D287A): T1 sequence (P30988 25-474 P363A) with D263A, A339P
The conditions noted are these: CV1-FlpIn cells, mean ± S.E.M.; for Emax: pERK maximal response. Put shortly: as §1

In a further assay the target is T4, hCTR N288A (Homo sapiens, UniProt P30988, N288A).
T4 construct: expressed in transfected cells
T4 sequence (P30988 25-474 N288A): T1 sequence (P30988 25-474 P363A) with N264A, A339P
The conditions noted are these: CV1-FlpIn cells, mean ± S.E.M.; for Emax: pERK maximal response; for EC50: pERK, three-parameter logistic fit. Put shortly:
as §1

In a further assay the target is T5, hCTR P360A (Homo sapiens, UniProt P30988, P360A).
T5 construct: expressed in transfected cells
T5 sequence (P30988 25-474 P360A): T1 sequence (P30988 25-474 P363A) with P336A, A339P
The conditions noted are these: CV1-FlpIn cells, mean ± S.E.M.; for Emax: pERK maximal response. Put shortly: as §1

[1] abbreviates: pERK, three-parameter logistic fit.

SMILES strings stand for the structures. Where a chain is given by its changes, count along the chain named. Where a SMILES comes first, the peptide text is derived from it. Bridges are numbered along the chain shown (N, C = ends).

For `CC[C@H](C)[C@H](NC(=O)[C@H](C)NC(=O)[C@@H](NC(=O)[C@H](CCC(N)=O)NC(=O)[C@@H]1CCCN1C(=O)[C@H](Cc1ccccc1)NC(=O)[C@@H](NC(=O)[C@H](Cc1c[nH]cn1)NC(=O)[C@H](Cc1ccccc1)NC(=O)[C@H](CCCCN)NC(=O)[C@H](CC(N)=O)NC(=O)[C@H](Cc1ccccc1)NC(=O)[C@H](CC(=O)O)NC(=O)[C@H](CCC(N)=O)NC(=O)[C@@H](NC(=O)[C@H](Cc1ccc(O)cc1)NC(=O)[C@@H](NC(=O)CNC(=O)[C@H](CC(C)C)NC(=O)[C@H](CCSC)NC(=O)[C@@H]1CSSC[C@H](N)C(=O)NCC(=O)N[C@@H](CC(N)=O)C(=O)N[C@@H](CC(C)C)C(=O)N[C@@H](CO)C(=O)N[C@@H]([C@@H](C)O)C(=O)N1)[C@@H](C)O)[C@@H](C)O)[C@@H](C)O)[C@@H](C)O)C(=O)NCC(=O)N[C@H](C(=O)NCC(=O)N[C@@H](C)C(=O)N1CCC[C@H]1C(N)=O)C(C)C` [hCT], the Emax on hCTR P363A amounted to 64 ± 6%; on hCTR L298A, 84 ± 10%; on hCTR D287A, 35 ± 5%; at hCTR N288A, 137 ± 8%; on hCTR P360A it was 51 ± 6%.

On to `CC(C)C[C@H](NC(=O)CNC(=O)[C@H](C)NC(=O)[C@H](CC(C)C)NC(=O)[C@H](CCCNC(=N)N)NC(=O)[C@H](Cc1cnc[nH]1)NC(=O)[C@@H](NC(=O)[C@@H](NC(=O)[C@@H]1CSSC[C@H](NC(=O)[C@H](C)N)C(=O)N[C@@H](CC(=O)O)C(=O)N[C@@H]([C@@H](C)O)C(=O)N[C@@H](C)C(=O)N[C@@H]([C@@H](C)O)C(=O)N1)C(C)C)[C@@H](C)O)C(=O)N[C@@H](CC(C)C)C(=O)N[C@@H](CO)C(=O)N[C@@H](CCCNC(=N)N)C(=O)N[C@@H](CO)C(=O)NCC(=O)NCC(=O)N[C@H](C(=O)N[C@H](C(=O)N[C@@H](CCCCN)C(=O)N[C@@H](CC(N)=O)C(=O)N[C@@H](CC(N)=O)C(=O)N[C@@H](Cc1ccccc1)C(=O)N[C@H](C(=O)N1CCC[C@H]1C(=O)N[C@H](C(=O)N[C@@H](CC(N)=O)C(=O)N[C@H](C(=O)NCC(=O)N[C@@H](CO)C(=O)N[C@@H](CCCCN)C(=O)N[C@@H](C)C(=O)N[C@@H](Cc1ccccc1)C(N)=O)C(C)C)[C@@H](C)O)C(C)C)C(C)C)C(C)C` [hαCGRP], for which the Emax on hCTR L298A worked out at 58 ± 8%; on hCTR N288A it was 110 ± 10%. The EC50 was 75.9 nM on hCTR L298A and 97.7 nM on hCTR N288A.

As for `CSCC[C@H](NC(=O)CNC(=O)[C@H](CO)NC(=O)[C@H](Cc1ccccc1)NC(=O)[C@H](CCCNC(=N)N)NC(=O)[C@H](Cc1c[nH]cn1)NC(=O)[C@H](Cc1ccccc1)NC(=O)[C@H](CC(N)=O)NC(=O)[C@H](CC(N)=O)NC(=O)[C@H](CC(C)C)NC(=O)[C@H](CC(N)=O)NC(=O)[C@H](CCCNC(=N)N)NC(=O)[C@H](Cc1c[nH]c2ccccc12)NC(=O)[C@H](Cc1ccc(O)cc1)NC(=O)[C@H](C)NC(=O)[C@H](CO)NC(=O)[C@H](CC(C)C)NC(=O)[C@@H](NC(=O)[C@@H]1CSSC[C@H](N)C(=O)N[C@@H](CO)C(=O)N[C@@H](CC(N)=O)C(=O)N[C@@H](CC(C)C)C(=O)N[C@@H](CO)C(=O)N[C@@H]([C@@H](C)O)C(=O)N1)C(C)C)C(=O)NCC(=O)N[C@@H](Cc1ccccc1)C(=O)NCC(=O)N1CCC[C@H]1C(=O)N[C@@H](CCC(=O)O)C(=O)N[C@H](C(=O)N1CCC[C@H]1C(N)=O)[C@@H](C)O` [pCT] (H-CSNLSTCVLSAYWRNLNNFHRFSGMGFGPETP-NH2; disulfide 1-7), the Emax stood at 39 ± 2% on hCTR P363A; 73 ± 6% on hCTR L298A; 27 ± 3% on hCTR D287A; 135 ± 11% on hCTR N288A; 59 ± 7% at hCTR P360A. Further, the EC50 on hCTR P363A (setting [1]) was 5.75 nM; on hCTR L298A, 1.1 nM; at hCTR D287A (setting [1]) it was 12.6 nM; on hCTR N288A, 2.95 nM; at hCTR P360A (setting [1]), 39.8 nM.

Consider `CC(C)C[C@H](NC(=O)[C@H](CC(N)=O)NC(=O)[C@H](CC(N)=O)NC(=O)[C@H](CO)NC(=O)[C@H](CO)NC(=O)[C@H](CCCNC(=N)N)NC(=O)[C@@H](NC(=O)[C@H](CC(C)C)NC(=O)[C@H](Cc1ccccc1)NC(=O)[C@H](CC(N)=O)NC(=O)[C@H](C)NC(=O)[C@H](CC(C)C)NC(=O)[C@H](CCCNC(=N)N)NC(=O)[C@H](CCC(N)=O)NC(=O)[C@@H](NC(=O)[C@H](C)NC(=O)[C@@H]1CSSC[C@H](NC(=O)[C@@H](N)CCCCN)C(=O)N[C@@H](CC(N)=O)C(=O)N[C@@H]([C@@H](C)O)C(=O)N[C@@H](C)C(=O)N[C@@H]([C@@H](C)O)C(=O)N1)[C@@H](C)O)C(C)C)C(=O)NCC(=O)N1CCC[C@H]1C(=O)N[C@H](C(=O)N[C@@H](CC(C)C)C(=O)N1CCC[C@H]1C(=O)N1CCC[C@H]1C(=O)N[C@H](C(=O)N[C@@H](CC(N)=O)C(=O)N[C@H](C(=O)NCC(=O)N[C@@H](CO)C(=O)N[C@@H](CC(N)=O)C(=O)N[C@H](C(=O)N[C@@H](Cc1ccc(O)cc1)C(N)=O)[C@@H](C)O)C(C)C)[C@@H](C)O)C(C)C` [rAmy], for which the Emax turned out to be 28 ± 9% on hCTR P363A, 82 ± 7% at hCTR L298A and 79 ± 7% at hCTR N288A.

Regarding `CC(C)C[C@H](NC(=O)[C@H](CCCCN)NC(=O)CNC(=O)[C@H](CC(C)C)NC(=O)[C@@H](NC(=O)[C@@H]1CSSC[C@H](N)C(=O)N[C@@H](CO)C(=O)N[C@@H](CC(N)=O)C(=O)N[C@@H](CC(C)C)C(=O)N[C@@H](CO)C(=O)N[C@@H]([C@@H](C)O)C(=O)N1)C(C)C)C(=O)N[C@@H](CO)C(=O)N[C@@H](CCC(N)=O)C(=O)N[C@@H](CCC(=O)O)C(=O)N[C@@H](CC(C)C)C(=O)N[C@@H](Cc1c[nH]cn1)C(=O)N[C@@H](CCCCN)C(=O)N[C@@H](CC(C)C)C(=O)N[C@@H](CCC(N)=O)C(=O)N[C@H](C(=O)N[C@@H](Cc1ccc(O)cc1)C(=O)N1CCC[C@H]1C(=O)N[C@@H](CCCNC(=N)N)C(=O)N[C@H](C(=O)N[C@@H](CC(N)=O)C(=O)N[C@H](C(=O)NCC(=O)N[C@@H](CO)C(=O)NCC(=O)N[C@H](C(=O)N1CCC[C@H]1C(N)=O)[C@@H](C)O)[C@@H](C)O)[C@@H](C)O)[C@@H](C)O` [sCT], the Emax on hCTR P363A turned out to be 95 ± 5%; at hCTR L298A, 85 ± 6%; on hCTR D287A, 39 ± 2%; at hCTR N288A, 127 ± 13%; on hCTR P360A it was 115 ± 9%.
